The test system of data set [1] is MRL/lpr mice. The data set can be described thus: Proteinuria (dipstick) in MRL mice. The format is in vivo, mouse. The following applies: MRL/lpr mice treated 5 days a week from 6 weeks of age. As to the method:
The presence of proteinuria was measured on freshly expressed urine samples at weekly intervals. The protein content was evaluated semiquantitatively using a commercial dipstick method (Macherey-Nagel, Germany). This colorimetric assay is specific for albumin, with approximate protein concentration as follows: 0, 30, 100 and 500 mg/dl (mg%).

The test system of data set [2] is MRL/lpr mice. The data set can be described thus: Disease activity in MRL/lpr mice (proteinuria, lymphadenopathy, grip strength; Example 4). The format is in vivo, mouse. On the procedure: One of the important measures of disease activity in MRL/lpr mice is proteinuria. Levels of proteinura were measured weekly by means of dip-sticks in MRL/lpr and Mrl/++ mice treated daily with FTS or with vehicle alone. Significant proteinuria developed in the MRL/lpr treated with vehicle compared to the MRL/++ groups. […] Other systemic measures of disease activity including lymphadenopathy and lymphocyte proliferation were normalized in FTS treated MRL/lpr mice (not shown).

In data set [3] the test system is MRL/lpr mice. The experiment in a line: Open field test in MRL mice. The format is in vivo, mouse. The following applies: 20 minutes. On the procedure: Saline-treated and FTS-treated MRL/lpr and saline-treated MRL/++ mice (n=5), were tested for spatial behavior in a novel environment in an open field. The apparatus comprised of a circular pool (120 cm diameter by 50 cm high) placed in a lighted room. The test was conducted during the light phase of day-night cycle. The mice were brought to the experimental room 1 hour before testing. Each mouse was removed gently from its cage, placed individually at the center of the field, and videotaped with a camcorder for 20 minutes. At the end of each session the pool was cleaned with paper towels moistened with ammonium glass cleaner to remove urinary trails. The frequency and duration of progression or stopping in the open field was analyzed during playback of the video records by software custom-written by Dr. David Eilam (Life Sciences Department, Tel-Aviv University). Total distance traveled, locomotion time, speed of moving, spatial distribution of explorations and latency for establishing a home base, and duration of staying there, were extracted.

The subject of data set [4] is TAA-induced acute liver injury in rats. The data set can be described thus: TAA-induced acute liver damage in FTS-pretreated rats. The format is in vivo, rat. The following applies: TAA + FTS 5 mg/kg daily from 3 days before TAA; 52 h; Mean ± SD, n = 5. On the procedure: To exclude the possibility that the effect of FTS on hepatic fibrosis is due to anti-inflammatory rather than anti fibrotic activity, acute liver damage was induced by TAA (3 injections of 400 mg/kg, i.p.) in a separate group of FTS-pretreated rats. Blood was drawn 52 h after the first TAA injection for the measurement of serum levels of hepatic enzymes and blood ammonia, and liver tissue was […]. TAA was administered in 3 consecutive injections of 400 mg/kg, i.p. in 24 h intervals. Serum levels of liver enzymes, blood ammonia and liver histology were determined 52 h after the first TAA injection. FTS administration (5 mg/kg daily), was started 3 days prior to the first TAA injection.

The test system of data set [5] is EAN in Lewis rats. The experiment in a line: EAN rats, electrophysiology (tail nerve stimulation, CMAP). Type of data set: in vivo, rat. The settings on record: day 20; FTS for 10 or 28 days. On the procedure: The animal was anesthetized with phenobarbital. […] Previous experience has shown that smaller amounts are necessary during the acute EAN disease phase in order to avoid mortality. Mono-polar needle electrodes were used to stimulate the sciatic nerve and the response was measured in the plantar muscle by a surface ring electrode (8). Alternatively, the tail nerves were stimulated and tail muscle response measured by the same electrodes. […] The tail response was therefore be used in the early disease stage (days 18-22). The latency of responses to distal and proximal stimulation were used to calculate nerve conduction velocity. The amplitude of the responses was used to assess conduction block. Electrophysiological assays were performed on day 20 in the 3 groups of rats described in the previous section.

The test system of data set [6] is MRL/lpr mice. The experiment in a line: Grip strength test (hang time) in MRL mice. Type of data set: in vivo, mouse. On the procedure:
The four groups of mice were examined weekly using the grip strength test. Muscle strength was measured by the number of seconds the mouse was able to hang suspended on a stationary bar. A neurologically normal mouse is able to remain suspended (hang time) for 30 seconds or longer (17).

SMILES strings stand for the structures. Entries after “also recorded” stand apart in the source; their conditions may differ.

In the case of `CC(C)=CCC/C(C)=C/CC/C(C)=C/CSc1ccccc1C(=O)O` [FTS, farnesyl thiosalicylic acid], in data set [1], the proteinuria entry was “very low levels of proteinuria; also recorded: normalized”. Also, in data set [2] (MRL/lpr mice), the “lymphadenopathy and lymphocyte proliferation” value is on record as “normalized”; the “weakness as measured by grip strength on a horizontal bar” value was “normalized by FTS treatment”. Moreover, in data set [2] (MRL/lpr mice treated daily), the “proteinuria (dip-sticks, FIG. 15)” value is given as “did not develop significant proteinuria”. In data set [3], the “open field: time spent in the center” value is given as “significant effect on the time spent in the center” and the “open field: total distance covered” value is “no effect on the total distance covered”. For the same compound, in data set [4], the AST was 2996 ± 364 IU/l; the “Blood Ammonia” value amounted to 8.9 ± 2.3 µg/mL; the “Hepatic inflammation and cell necrosis (score of 0-3)” value stood at 2.5 ± 0.6. Besides, the “compound muscle action potentials (CMAPs), tail muscle” value in data set [5] is “significant amelioration”. The “grip strength (hang time on a horizontal bar)” value in data set [6] (MRL/++ mice) is given as “trend for FTS to impair performance”. Besides, the “grip strength (hang time on a horizontal bar)” value in data set [6] (MRL/lpr mice, 12-17 weeks of age) is “significantly impaired in this test from week 14 compared to the FTS-treated group; also recorded: normalized”.

Values taken from patent US6462086B1, “Non-malignant disease treatment with Ras antagonists” (Ramot University Authority for Applied Research and …, priority 1999, dated 2002).
